We go through one molecule from paper PMC4613240, “A Series of New Ligustrazine-Triterpenes Derivatives as Anti-Tumor Agents: Design, Synthesis, and Biological Evaluation” (International Journal of Molecular Sciences, 2015).

For assay [1], the system named is HepG2 (human hepatocellular carcinoma). The assay is described as follows: MTT cytotoxicity assay, HepG2. It counts as cell-based. As to conditions: for IC50: 72 h, maximal tested concentration 20.0 μM. As for the experimental part:
(§1) The cytotoxicity of ligustrazine-triterpenes derivatives was evaluated on five tumor cell lines (Bel-7402, HepG2, HT-29, Hela, and MCF-7) using the standard MTT assay. In the study, the antineoplastic drug cisplatin (DDP) was selected as the positive control. The MDCK cell line was used to test the toxicity of the ligustrazine-triterpenes derivatives and DDP.
(§2) The cell lines Bel-7402 (human hepatocellular carcinoma), HepG2 (human hepatocellular carcinoma), HT-29 (human colon carcinoma), Hela (human cervical cancer), MCF-7 (human breast cancer) were included in this study. All these cell lines were provided by the Chinese Academy of Medical Sciences & Peking Union Medical College. Cultures were maintained as monolayers in RPMI 1640 supplemented with 10% (v/v) heat inactivated fetal bovine serum and 1% (v/v) enicillin/streptomycin (Thermo Technologies, New York, NY, USA) at 37 °C in a humidified atmosphere with 5% CO2. The ligustrazine derivatives under study were dissolved in DMSO (Sigma, St. Louis, MO, USA) and added at required concentrations to the cell culture. Cells incubated without the preparations served as the control.
(§3) The cytotoxicity of the compounds was evaluated on five cancer cell lines (Bel-7402, HepG2, HT-29, Hela, MCF-7) by the standard MTT assay. In short, exponentially growing cells were seeded into 96-well plates at a density 10^4 cells/mL. The plates were incubated at 37 °C in a humidified 5% CO2 atmosphere. Cells were allowed to adhere to the surface for 24 h and then treated with serial dilutions of the compounds for 72 h. Later, aliquots of [3-(4,5-dimethylthiazol-2-yl)-2,5-diphenyltetrazolium bromide] (MTT) solution (20 μL, 5 mg/mL) were added to each well and the incubation was continued for an additional 4 h. Then the supernatant medium was thrown away. The dark blue formazan crystals formed within the healthy cells were solubilized with DMSO (150 μL) and the absorbance was measured in a plate reader (BIORAD 550 spectrophotometer, Bio-rad Life Science Development Ltd., Beijing, China) at 490 nm. Wells containing no drugs were used as control group. The IC50 values were defined as the concentration of compounds that produced a 50% reduction of surviving cells and calculated using Logit-method. Tumor cell growth inhibitory rate was calculated in the following Equation (1): % inhibition = (1 − Sample group OD/Control group OD) × 100% (1)
(In general: Tetrazolium assays rely on reduction of a dye to a coloured formazan, in cell work by metabolically active cells.)

In assay [2] the test system is HepG2 cells. The assay is described as follows: Intracellular free Ca2+ detection (Fluo-3AM, flow cytometry). The format is cell-based, human. The following applies: 72 h, control MFI 4773. Here is the method:
A sustained increase in intracellular Ca^2+ concentrations is recognized as a factor for cell death or injury. The level of intracellular free Ca^2+ is examined by the fluorescent dye Fluo-3AM. The Fluo-3 AM is converted to Fluo-3 upon deacetylation within the cells, and Fluo-3 increases green fluorescence upon Ca^2+ binding. […] As the concentration of 4a increased from 5.0 to 6.0 to 7.0 μM, intracellular free Ca^2+ fluorescence increased dramatically (from 4800 to 5612 to 6955). It was in accordance with the tendencies of mitochondrial membrane potential and cell apoptosis.
The level of intracellular free Ca^2+ was examined by the fluorescent dye Fluo-3AM. HepG2 cells (1 × 10^5 cells/mL) in logarithmic growth phase were cultured in 6-well plates for 24 h at 37 °C in incubator with 5% CO2. After exposed to different concentrations of 4a (5, 6, 7 μM) for 72 h, cells were harvested and washed twice with cold PBS, then resuspended in HBSS buffer with 10 μM Fluo-3AM (Fluo-3AM, Shanghai Beyotime Biotech. Co., Ltd., Shanghai, China), and incubated for 30 min at 37 °C in the dark. Detection of intracellular Ca^2+ was carried out by the Flow Cytometer at 488 nm excitation wavelength.
A general note: In flow cytometry, cells or beads pass a laser one at a time.

For assay [3], the system named is Hela (human cervical cancer). The assay is described as follows: MTT cytotoxicity assay, Hela. The following applies: 72 h, maximal tested concentration 20.0 μM. The format is cell-based. As for the experimental part:
as §1, §2, §3

For assay [4], the system named is HepG2 cells. The assay is described as follows: Morphological observation using Giemsa staining. It counts as cell-based, human. The following applies: HepG2, 2, 4, 8 μM for 72 h. As for the experimental part: The morphological changes in HepG2 cells were examined by Giemsa staining. HepG2 cells were seeded in 6-well plates. The cell density was adjusted to 4 × 10^3/well and incubated overnight. After 72 h reaction with certain concentrations of 4a (2, 4, 8 μM), cells were washed with PBS and fixed with cold methanol for 10 min. Methanol was discarded and cells were air-dried. Then fixed cells were stained with 6% Giemsa (Giemsa, Molecular Probes/Invitrogen Life Technologies, Carlsbad, CA, USA) solution for 5 min, washed with water and dried. The cell morphological changes were observed and photographed under a light microscope.

In general, IC50 refers to the concentration that inhibits the measured activity by half. Usually inhibition stands for the change of the read-out against control, counted positive when it falls. Take `C=C(C)[C@@H]1CC[C@]2(C(=O)OCc3nc(C)c(C)nc3C)CC[C@]3(C)C(CCC4[C@@]5(C)CC[C@H](O)C(C)(C)C5CC[C@]43C)C12` (stereo partly drawn) [Compound 4a, 3β-Hydroxy-lup-20(29)-ene-28-oic acid-3,5,6-trimethylpyrazin-2-methyl ester]: the IC50 in assay [1] was 4.48 µM; in assay [1] (Homo sapiens, HepG2, 72 h), < 5.23 µM; in assay [3] it was 4.34 µM; in assay [3] (Homo sapiens, HeLa) it was < 5.23 µM. For the same molecule, in assay [1] (Homo sapiens, HepG2, 10 μM, read-out: inhibition rate against HepG2), the inhibition at 10 µM was determined as 99.9%. For the same molecule, the “intracellular free Ca2+ fluorescence (MFI), Fluo-3AM” value in the assay on HepG2 cells [2] (HepG2, 5 μM) was determined as 4800; with HepG2 cells [2] (HepG2, 6 μM), 5612; in the assay with HepG2 cells [2] (HepG2, 7 μM), 6955. Further, in the assay on HepG2 cells [4], the “cell morphology after Giemsa staining” value is “evident nuclear fragmentation, chromatin condensation in a dose dependent manner”.
